“Also recorded” adds a separate entry of the source.
Assays:
FXR = biological target: T1, FXR (Homo sapiens, UniProt Q96RI1); assay: CHO cell-based FXR luciferase reporter assay (Indigo Biosciences); settings: for FXR Efficacy (%) (1 µM) / FXR Efficacy (%) (10 µM): % vs OCA 1 µM as 100%
T1 construct: host or cells: CHO cells
T1 sequence (Q96RI1 1-486): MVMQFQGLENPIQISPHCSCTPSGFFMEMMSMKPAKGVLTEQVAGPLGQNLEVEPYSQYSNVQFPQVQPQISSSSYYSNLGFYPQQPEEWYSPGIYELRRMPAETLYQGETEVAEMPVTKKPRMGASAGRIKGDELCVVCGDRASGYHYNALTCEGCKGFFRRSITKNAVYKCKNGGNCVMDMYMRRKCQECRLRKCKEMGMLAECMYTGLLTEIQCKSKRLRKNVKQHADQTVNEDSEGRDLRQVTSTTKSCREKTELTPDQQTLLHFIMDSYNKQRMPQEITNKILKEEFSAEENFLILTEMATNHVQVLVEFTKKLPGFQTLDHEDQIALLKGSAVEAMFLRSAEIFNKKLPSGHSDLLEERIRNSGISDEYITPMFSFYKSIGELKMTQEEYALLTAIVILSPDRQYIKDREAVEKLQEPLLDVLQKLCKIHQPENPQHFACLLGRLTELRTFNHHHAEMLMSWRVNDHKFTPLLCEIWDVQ
Description: To evaluate direct agonist activities against FXR, test compounds were evaluated using a CHO cell-based FXR assay by Indigo Biosciences (State College, PA), in which cells were transfected with an FXR luciferase reporter system.
To directly evaluate the in vitro agonist activity towards FXR, test compounds were evaluated in CHO cells transfected with FXR responsive luciferase reporter (Nuclear Receptor & In Vitro Toxicology Solutions, Indigo Biosciences, State College, PA, USA). […] Each compound was tested in duplicate, and the average value was reported[35],[36].
(§1) The cell recovery medium (CRM, Human Farnesoid X Receptor (NR1H4, FXR reporter assay system, Indigo Biosciences, State College, PA, USA) and compound screening medium (CSM, Human Farnesoid X Receptor (NR1H4, FXR reporter assay system, Indigo Biosciences, State College, PA, USA) were removed from the freezer and thawed in a water bath at 37 °C. Test compounds were dissolved in dimethyl sulfoxide (DMSO, FUJIFILM Wako Pure Chemical Corporation, Osaka city, Osaka, Japan), and the treatment medium was prepared and diluted with CSM to achieve a final concentration of 0.2% total DMSO. The reporter cells were thawed by transferring 3.3 mL CRM at 37 °C into tubes of frozen cells. The tube containing reporter cells was recapped, and it was immediately place in a 37 °C water bath for 5 min. The reporter cells were gently inverted several times, and 100 µL cell suspension was dispensed into each well. One hundred microliters of treatment media was added into wells. Subsequently, the assay plate was kept at 37 °C, and it was incubated with 5% CO2 for 22 h. To prepare luciferase detection reagent (LDR), the detection substrate was gently mixed with detection buffer, media contents were removed from each well, and 100 µL LDR was added to each well of the assay plate. The assay plate was allowed to rest at room temperature for 5 min, and luminescence was quantified using the Multi-Mode Microplate Reader (FlexStation 3, Molecular Devices Inc., San Jose, CA, USA)[36].
S4. In vitro, in vivo assay, and selectvity.
To directly evaluate the in vitro agonist activity towards FXR, test compounds were evaluated in CHO cells transfected with FXR responsive luciferase reporter (Nuclear Receptor & In Vitro Toxicology Solutions, Indigo Biosciences, State College, PA, USA). Cells were incubated with […]
(FlexStation 3, Molecular Devices Inc., San Jose, CA, USA). Efficacies are reported relative to […]
reporter on of 1 µM. Each compound was tested in duplicate, and the average value was […]
as §1, with “sulfoxide (DMSO ,” for “sulfoxide (DMSO,”, “Osaka, Jap an),” for “Osaka, Japan),”, “a 37°C” for “a 37 °C”, “5% CO 2” for “5% CO2”, “using […]” for “using the Multi-Mode Microplate Reader (FlexStation 3, Molecular Devices Inc., San Jose, CA, USA)[36].”

TGR5 = biological target: T2, TGR5 (Homo sapiens, UniProt Q8TDU6); assay: TGR5 cAMP assay in CHO cells transfected with TGR5 (cAMP Hunter eXpress, Discover X); assay type: cell-based
T2 construct: host or cells: CHO cells
T2 sequence (Q8TDU6 1-330): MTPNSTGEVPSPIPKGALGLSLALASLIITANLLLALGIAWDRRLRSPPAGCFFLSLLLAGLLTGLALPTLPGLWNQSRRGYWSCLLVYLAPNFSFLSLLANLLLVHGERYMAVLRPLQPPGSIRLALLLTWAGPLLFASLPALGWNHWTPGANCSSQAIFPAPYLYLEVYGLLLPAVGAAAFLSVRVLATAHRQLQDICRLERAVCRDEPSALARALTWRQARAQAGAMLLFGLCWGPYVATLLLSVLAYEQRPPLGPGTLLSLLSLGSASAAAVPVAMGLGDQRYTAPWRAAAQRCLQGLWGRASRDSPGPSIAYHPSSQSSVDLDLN
Description: TGR5 agonist activity was evaluated by transfecting CHO cells with TGR5 using the Discover X expression kit (cAMP Hunter eXpress GPCR Assay, Discover X Fremont, CA). Cells were incubated with test compounds for 0.5 h, and intracellular cAMP levels were measured using the multi-mode microplate reader.
(§2) TGR5 agonist activity was evaluated by transfecting CHO cells with TGR5 using the Discover X expression kit (cAMP Hunter eXpress Assay Kit, Discover X Fremont, CA, USA). Cells were incubated with the test compounds for 0.5 h, and intracellular cAMP levels were measured using Multi-Mode Microplate Reader (FlexStation 3, Molecular Devices Inc., San Jose, CA, USA).
Each compound was tested at concentrations of 10, 1, or 0.1 µM in duplicate (n = 2), with the average value shown.
S4. In vitro, in vivo assay, and selectvity. […]
In vitro TGR5 agonist assay protocol
as §2
Each compound was tested at concentrations of 10, 1, or 0.1 µM in duplicate (n=2), with the […]
parameter logistic equation, Y = min + (max - min)/(1 + 10^(n * (log10(EC50) - log10(conc)))), in […]

| Structure (SMILES) | FXR agonist activity (in words) (FXR) | FXR Efficacy (%) (1 µM) (FXR) | FXR Efficacy (%) (10 µM) (FXR) | TGR5 agonist activity (in words) (TGR5) | TGR5 Efficacy (%) (10 µM) (TGR5; % vs INT-767 10 µM as 100%) | TGR5 Efficacy (%) (0.1 µM) (TGR5; 0.1 µM, % vs INT-767 10 µM as 100%) | TGR5 Efficacy (%) (1 µM) (TGR5; 1 µM, % vs INT-767 10 µM as 100%) |
| --- | --- | --- | --- | --- | --- | --- | --- |
| COC(=O)/C=C/c1cccc(N(Cc2ccc(-c3ccc(N(C)C)cc3)cc2)C(=O)c2ccncc2C)c1 [Compound 13a] | strong FXR agonist activity with full efficacy | 24.6% | 100.2% | inactive against TGR5 | -3.1% | – | – |
| COc1cnccc1C(=O)N(Cc1ccc(-c2ccc(N(C)C)cc2)cc1)c1cc(Cl)cc(Cl)c1 [Compound 13aa] | weak dual agonist activity | 68.6% | – | weak dual agonist activity | 21.5% | – | – |
| CN(C)c1ccc(-c2ccc(CN(C(=O)c3ccnnc3)c3cc(Cl)cc(Cl)c3)cc2)cc1 [Compound 13ab] | did not have any activity against either FXR or TGR5 | 0.5% | – | did not have any activity against either FXR or TGR5 | -12% | – | – |
| CN(C)c1ccc(-c2ccc(CN(C(=O)c3ccccc3Cl)c3cc(Cl)cc(Cl)c3)cc2)cc1 [Compound 13ac] | strong FXR activities | 84.3% | – | – | 0.2% | – | – |
| CN(C)c1ccc(-c2ccc(CN(C(=O)C3CCC(O)CC3)c3cc(Cl)cc(Cl)c3)cc2)cc1 (stereo not drawn) [Compound 13ae] | strong FXR activities | 101.4% | – | – | -1.5% | – | – |
| CN(C)c1ccc(-c2ccc(CN(C(=O)c3ccc(O)cc3Cl)c3cc(Cl)cc(Cl)c3)cc2)cc1 [Compound 13af] | strong FXR activities | 108.2% | – | – | -0.2% | – | – |
| COc1ccc(C(=O)N(Cc2ccc(-c3ccc(N(C)C)cc3)cc2)c2cc(Cl)cc(Cl)c2)c(Cl)c1 [Compound 13ag] | strong FXR activities | 136.5% | – | significantly low potency against TGR5 | 1.1% | – | – |
| Cc1cnccc1C(=O)N(Cc1ccc(-c2ccccc2)cc1)c1cc(Cl)cc(Cl)c1 [Compound 13ah] | – | 17.7% | – | TGR5 full agonist | 118.6% | – | – |
| COC(=O)/C=C/c1cccc(N(Cc2ccc(-c3ccc(N(C)C)cc3)cc2)C(=O)c2ccncc2)c1 [Compound 13b] | – | 16.7% | 86.9% | inactive against TGR5 | -2.8% | – | – |
| COC(=O)/C=C/c1cccc(N(Cc2ccc(-c3ccc(N(C)C)cc3)cc2)C(=O)c2cccnc2)c1 [Compound 13c] | – | – | 68.1% | – | 1.7% | – | – |
| COC(=O)/C=C/c1cccc(N(Cc2ccc(-c3ccc(N(C)C)cc3)cc2)C(=O)c2ccccc2)c1 [Compound 13d] | – | 24.5% | 88.9% | – | 0.0% | – | – |
| Cc1cnccc1C(=O)N(Cc1ccc(-c2ccc(N(C)C)cc2)cc1)c1ccc(F)cc1C [Compound 13e] | – | 2.0% | – | strong TGR5 agonist activity | 87.5% | – | – |
| Cc1cc(F)ccc1N(Cc1ccc(-c2ccc(N(C)C)cc2)cc1)C(=O)c1ccncc1 [Compound 13f] | – | 0.5% | – | – | 32.0% | – | – |
| Cc1cc(F)ccc1N(Cc1ccc(-c2ccc(N(C)C)cc2)cc1)C(=O)c1cccnc1 [Compound 13g] | – | 1.2% | – | – | 0.8% | – | – |
| COC(=O)/C=C/c1ccc(C)c(N(Cc2ccc(-c3ccc(N(C)C)cc3)cc2)C(=O)c2ccncc2C)c1 [Compound 13h] | – | 25.3% | – | – | 0.2% | – | – |
| COC(=O)/C=C/c1cccc(N(Cc2ccc(-c3ccc(N(C)C)cc3)cc2)C(=O)c2ccncc2C)c1C [Compound 13i] | weak FXR/TGR5 dual agonist activity | 32.1% | – | weak FXR/TGR5 dual agonist activity | 47.2% | – | – |
| Cc1cnccc1C(=O)N(Cc1ccc(-c2ccc(N(C)C)cc2)cc1)c1cc(Cl)cc(Cl)c1 [Compound 13j] | potent FXR/TGR5 dual agonist activity; also recorded: dual potencies against both FXR and TGR5 | 62.1% | – | potent FXR/TGR5 dual agonist activity; also recorded: dual potencies against both FXR and TGR5 | 59.7% | – | – |
| Cc1cnccc1C(=O)N(Cc1ccc(-c2ccc(N(C)C)cc2)cc1)c1cc(Cl)cc(Br)c1 [Compound 13k] | dual potencies against both FXR and TGR5 | 75.9% | – | dual potencies against both FXR and TGR5 | 47.4% | – | – |
| Cc1cc(C)cc(N(Cc2ccc(-c3ccc(N(C)C)cc3)cc2)C(=O)c2ccncc2C)c1 [Compound 13l] | – | 37.6% | – | – | 48.5% | – | – |
| COC(=O)/C=C/c1cc(Cl)cc(N(Cc2ccc(-c3ccc(N(C)C)cc3)cc2)C(=O)c2ccncc2C)c1 [Compound 13m] | – | 72.5% | – | – | 6.7% | – | – |
| CCC1C(O)C2C3CCC(C(C)CCOS(=O)(=O)O)C3(C)CCC2C2(C)CCC(O)CC12 (stereo not drawn) [INT-767, reference compound] | – | – | – | – | 100% | 1.7% | 25.5% |
